# According to article PMC4663524 (Toxins, 2015):
# Several values for one entry are separate records, joined by “and”; a condition that tells them apart may be missing. Identical values can stand only once.
# Legend:
# [1] = Plasma toxicokinetics after a single intravenous bolus (DONiv, DONSiv); assay type: in vivo, pigs; conditions: for Vd(area), apparent volume of distribution: DONS 1 or DONS 2, DONSiv 50 µg/kg BW; for peak concentration in plasma (mean of A + B): after DONSiv 50 µg/kg BW; for stability in plasma: after DONSiv injection
# Method: (§1) The experiment was designed as a kinetic study. […] Due to the instability of DONS 2 and 3 upon evaporation to dryness, the standards of the three DONS were dissolved in water acidified with 2% formic acid.
# (§2) A total of 16 castrated male pigs, crossbred German Landrace × Pietrain, were used for these kinetic experiments. After an adaption phase to the balance cages, eight animals underwent surgery per trial. Animals were equipped with two permanent intravenous catheters in the external vena jugularis for serial blood sampling. After surgery the animals were allowed to recover for one day. On test day, zero blood samples had to be collected from pigs before exposure. Zero blood samples served as reference values to which the data after oral or intravenous bolus related. Serial blood samples (10 mL) were drawn prior to feeding and after 15, 30, 60 and 90 min and then after two, three, four, six, eight, 10, 12, and 24 h for pigs receiving compounds by oral administration. For pigs dosed intravenously, shorter time intervals were chosen at the beginning: five, 10, 15, 20, 30, 45 min and then following the same intervals as for oral exposure. For a clear classification in result Table 1, Table 2, Table 3, Table 4, Table 5 and Table 6, we differentiated between IV- (intravenous bolus) and O- (oral bolus) animals. Due to repeated use of individuals it was numbered continuously.
# (§3) Two different injection solutions were prepared for IV administration. […] After weighing, an individual amount was drawn up into syringes with a dose of 50 µg/kg BW. The concentrations of DONS 1, 2, and 3 in DONS standard solution were 3240, 1720, and 7300 µg/mL, respectively. […] Thereafter, the standard was mixed with physiological saline to prepare a 250 µg/mL DONS stock solution. The further handling was similar to DON.
# (§4) For quantitative determination of DONS 1, 2, and 3 in plasma, an HPLC-MS/MS analysis was conducted on an Agilent 1200 (Agilent Technologies, Böblingen, Germany) series HPLC system coupled to a 4000 QTrap mass spectrometer (AB Sciex, Foster City, CA, USA). […] The retention times of DONS 1, 2, and 3 were 2.31, 4.71, and 5.88 min, respectively. Tandem mass spectrometric detection was carried out in negative ion mode after electrospray ionization at 600 °C (ion spray voltage: −4500 V). The method was validated in-house for all analytes based on the guidelines of the FDA and European community. Calibration graphs (0.3–480 ng/mL) were prepared and good linearity was achieved (r ≥ 0.99).
# The LOD amounted to 0.22 ng/mL and the LOQ was 0.72 ng/mL.
# A + B is the initial concentration at t = 0, i.e., C0, α, and β are the rate constant of distribution or elimination phase, respectively, and t the time (h). The non-linear curve fitting module of the Statistica for the Windows^TM operating system (StatSoft Inc., Tulsa, OK, USA) was used to fit the data to Equations (1) and (2).
# Further kinetic parameters were derived from the fitted functions as also described by Prelusky et al.. The half-life was calculated as t1/2α=ln (2)/ka or α for absorption or distribution phase and t1/2β=ln(2)/kel or β for the elimination phase, respectively. […] The apparent volume of distribution by area (Vd(area)) following intravenous application was calculated by Vd(area) = D/AUC⋅t1/2β/ln(2) as an indicator of Vd corresponding to the elimination phase and thus covering large parts of the kinetics.
# In addition, in order to evaluate the decomposition of the IV administered DONS mixture the DON-AUC was divided by the sum of individually estimated AUCs for DONS 1 and DONS 2 and declared as F. In each case, the AUCs were corrected for the administered dose.
# [2] = DONS/DON pattern in standard solution, bolus solution and pig plasma; assay type: physicochemical; conditions: for Proportion in bolus solution: DONS standard mixed with physiological saline for IV bolus (pH 2.66); for Proportion in standard solution: DONS standard solution (pH 1.56); for Proportion in pig plasma: after IV 50 µg DONS mixture/kg BW
# Method: as §3
# Due to known dependency of DONS stability on pH value, we compared the pH of standard and bolus solutions. The determination was carried out with a pH meter (WTW GmbH, Weilheim, Germany). Both an addition of physiological saline and distilled water caused changes in pH value, and so shifts in DONS ratio took place.
# as §4
# [3] = DONS mixture added to uncontaminated diet
# [4] = cited from earlier work; for pH range of stability: DONS 2: for 24 h
# [5] = Clinical symptoms after intravenous or oral bolus; assay type: in vivo, pigs; conditions: for clinical symptoms: pigs, after single bolus
# Method: as §1, §2
# [6] = cited from earlier work
# [7] = cited from earlier work; remark: listed apart in the source
# [8] = DONS 1 or DONS 2 in plasma (DON equivalents), DONSiv 50 µg/kg BW, individual pigs IV6-11
# [9] = DONS 1 or DONS 2 in plasma (DON equivalents), DONSiv 50 µg/kg BW, mean, n=6
# [10] = DONS 1 or DONS 2 in plasma (DON equivalents), IV 50 µg DONS mixture/kg BW (DONSiv), individual pigs IV6-11
# [11] = DONS 1 or DONS 2 in plasma, DONSiv 50 µg/kg BW, individual pigs IV6-11
# [12] = DONS 1 or DONS 2 in plasma, DONSiv 50 µg/kg BW, mean, n=6
# [13] = DON in plasma after DONSiv 50 µg/kg BW, individual pigs IV6-11
# [14] = DON in plasma after DONSiv 50 µg/kg BW, mean, n=6
# [15] = DON in plasma, IV 50 µg DON/kg BW, individual pigs IV 1-5, listed as DONiv
# [16] = DON in plasma, IV 50 µg DON/kg BW, mean, n=5
smiles,measurement,setting,value
C[C@H]1[C@H](S(=O)(=O)O)[C@H]2O[C@@H]3[C@H](O)C[C@](C)([C@]24COC1(O)[C@H]4O)[C@]31CO1 [DONS 2],"Vd(area), apparent volume of distribution",[1]; individual pigs IV6-11,0.68 L/kg and 0.96 L/kg and 0.67 L/kg and 1.08 L/kg and 0.53 L/kg and 0.69 L/kg
same,"Vd(area), apparent volume of distribution","[1]; mean, n=6",0.8 L/kg
same,"AUC, area under the curve",[1]; [8],81.5 ng·h/mL and 74.6 ng·h/mL and 80.1 ng·h/mL and 78.1 ng·h/mL and 105.8 ng·h/mL and 94.6 ng·h/mL
same,B,[1]; [8],32.87 ng/mL and 20.05 ng/mL and 29.84 ng/mL and 19.94 ng/mL and 34.75 ng/mL and 25.99 ng/mL
same,A,[1]; [9],52.7 ng/mL
same,"AUC, area under the curve",[1]; [9],85.8 ng·h/mL
same,B,[1]; [9],27.2 ng/mL
same,A,[1]; [10],46.01 ng/mL and 23.41 ng/mL and 43.30 ng/mL and 34.43 ng/mL and 126.49 ng/mL and 42.60 ng/mL
same,"t1/2β, half-life of elimination",[1]; [11],0.77 h (2×) and 0.99 h and 0.74 h and 1.17 h and 0.91 h
same,"α, rate constant of distribution phase",[1]; [11],12.01 h⁻¹ and 4.93 h⁻¹ and 9.99 h⁻¹ and 4.03 h⁻¹ and 17.39 h⁻¹ and 4.41 h⁻¹
same,"β, rate constant of elimination phase",[1]; [11],0.90 1/h (2×) and 0.70 1/h and 0.93 1/h and 0.59 1/h and 0.76 1/h
same,"α, rate constant of distribution phase",[1]; [12],8.8 h⁻¹
same,"β, rate constant of elimination phase",[1]; [12],0.8 h⁻¹
same,peak concentration in plasma (mean of A + B),[1],79.9 ng/mL
same,stability in plasma,[1],stable in plasma
same,Proportion in bolus solution,[2],10.69%
same,Proportion in standard solution,[2],14.03%
same,Proportion in pig plasma,[2],28.25%
same,detection in plasma after oral DONSpo,[3],"rarely, traces of DONS 1 and 2 (<LOQ)"
same,pH range of stability,[4],2–7
same,pH values at which back-formation or degradation to DON is observed,[4],8–10
CC12CC3(O)[C@@H]4O[C@H]([C@H]1S(=O)(=O)O)[C@](CO)([C@H](O)C2=O)[C@@]3(C)C[C@H]4O [DONS 1],"Vd(area), apparent volume of distribution",[1]; individual pigs IV6-11,0.35 L/kg and 0.48 L/kg and 0.51 L/kg and 0.37 L/kg and 0.44 L/kg and 0.42 L/kg
same,"Vd(area), apparent volume of distribution","[1]; mean, n=6",0.4 L/kg
same,"AUC, area under the curve",[1]; [8],179.7 ng·h/mL and 143.2 ng·h/mL and 167.6 ng·h/mL and 187.8 ng·h/mL and 163.4 ng·h/mL and 167.8 ng·h/mL
same,B,[1]; [8],74.30 ng/mL and 55.10 ng/mL and 61.46 ng/mL and 75.58 ng/mL and 67.17 ng/mL and 69.69 ng/mL
same,A,[1]; [9],104.2 ng/mL
same,"AUC, area under the curve",[1]; [9],168.2 ng·h/mL
same,B,[1]; [9],67.2 ng/mL
same,A,[1]; [10],86.78 ng/mL and 61.27 ng/mL and 60.09 ng/mL and 257.42 ng/mL and 79.19 ng/mL and 80.20 ng/mL
same,"t1/2β, half-life of elimination",[1]; [11],0.87 h and 0.96 h (2×) and 1.18 h and 0.99 h and 0.98 h
same,"α, rate constant of distribution phase",[1]; [11],11.35 h⁻¹ and 13.56 h⁻¹ and 4.94 h⁻¹ and 20.41 h⁻¹ and 4.55 h⁻¹ and 10.96 h⁻¹
same,"β, rate constant of elimination phase",[1]; [11],0.80 1/h and 0.72 1/h (2×) and 0.59 1/h and 0.70 1/h and 0.71 1/h
same,"α, rate constant of distribution phase",[1]; [12],11.0 h⁻¹
same,"β, rate constant of elimination phase",[1]; [12],0.7 h⁻¹
same,peak concentration in plasma (mean of A + B),[1],171.4 ng/mL
same,stability in plasma,[1],stable in plasma
same,Proportion in bolus solution,[2],69.75%
same,Proportion in standard solution,[2],26.43%
same,Proportion in pig plasma,[2],59.49%
same,detection in plasma after oral DONSpo,[3],"rarely, traces of DONS 1 and 2 (<LOQ)"
same,pH range of stability,[4],2–10
"CC1=C[C@H]2O[C@@H]3[C@H](O)C[C@](C)([C@@]2(CO)[C@H](O)C1=O)[C@]31CO1 [DON, deoxynivalenol]",mean maximum concentration of DON in plasma (A + B),[1]; DON after DONSiv 50 µg/kg BW,17.33 ng/mL
same,B,[1]; [13],7.13 ng/mL and 5.49 ng/mL and 5.08 ng/mL and 2.91 ng/mL and 6.48 ng/mL and 3.17 ng/mL
same,"F, release rate of DON from DONS",[1]; [13],12.5% and 17.3% (2×) and 18.2% and 23.8% and 15.3%
same,"α, rate constant of distribution phase",[1]; [13],5.02 h⁻¹ and 3.23 h⁻¹ and 4.83 h⁻¹ and 1.72 h⁻¹ and 3.99 h⁻¹ and 2.25 h⁻¹
same,"β, rate constant of elimination phase",[1]; [13],0.32 h⁻¹ and 0.22 h⁻¹ and 0.34 h⁻¹ and 0.17 h⁻¹ and 0.29 h⁻¹ and 0.27 h⁻¹
same,A,[1]; [14],12.29 ng/mL
same,B,[1]; [14],5.04 ng/mL
same,"F, release rate of DON from DONS",[1]; [14],17.37%
same,"α, rate constant of distribution phase",[1]; [14],3.51 h⁻¹
same,"β, rate constant of elimination phase",[1]; [14],0.27 h⁻¹
same,A,"[1]; DON in plasma after IV 50 µg DONS mixture/kg BW (DONSiv), individual pigs IV6-11",12.44 ng/mL and 8.40 ng/mL and 17.13 ng/mL and 12.74 ng/mL and 12.50 ng/mL and 10.51 ng/mL
same,A,"[1]; DON in plasma, IV 50 µg DON/kg BW, two-compartment fit, individual pigs IV 1-5, listed as DONiv",136.4 ng/mL and 624.9 ng/mL and 121.9 ng/mL and 56.2 ng/mL and 74.5 ng/mL
same,B,[1]; [15],96.5 ng/mL and 83.6 ng/mL and 73.5 ng/mL and 64.5 ng/mL and 84.1 ng/mL
same,"α, rate constant of distribution phase",[1]; [15],7.35 h⁻¹ and 18.74 h⁻¹ and 13.71 h⁻¹ and 3.88 h⁻¹ and 6.29 h⁻¹
same,"β, rate constant of elimination phase",[1]; [15],0.36 h⁻¹ and 0.33 h⁻¹ and 0.35 h⁻¹ and 0.34 h⁻¹ and 0.38 h⁻¹
same,A,[1]; [16],202.8 ng/mL
same,B,[1]; [16],80.5 ng/mL
same,"α, rate constant of distribution phase",[1]; [16],9.99 h⁻¹
same,"β, rate constant of elimination phase",[1]; [16],0.35 h⁻¹
same,number of retching and vomiting episodes,[5]; IV 50 µg DON/kg BW,between three and nine times
same,time of retching and vomiting after bolus,[5]; IV 50 µg DON/kg BW,6 to 16 min
same,clinical symptoms,[5],sickness and emesis within minutes
same,clinical symptoms,[5]; listed as DONiv,retching and vomiting
same,Proportion in bolus solution,[2],19.26%
same,Proportion in standard solution,[2],0%
same,Proportion in pig plasma,[2],10.45%
same,initial concentration A + B of DON at t = 0,[6]; IV DON,46.2–139.9 ng/mL plasma
same,maximum concentration cmax,"[6]; oral, DON in wheat",15.2 ng/mL
same,tmax,"[6]; oral, DON in wheat",1.65 h
same,total DON bioavailability,"[6]; single oral dose, DON-contaminated wheat",91.5% ± 27.4%
same,share of orally-administered DON absorbed in the stomach and the first third of the small intestine,[7],~90%
